Measured values reported in patent US20230397605A1, “METHODS FOR IMPROVING PLANT GROWTH AND CROP YIELD BY USING COMPOUNDS OF TRISULPHIDE OR TETRASULPHIDE” (UNIVERSITY OF IOWA RESEARCH FOUNDATION, priority 2020, published 2023).

Tests used:
Lettuce = test: Growth of lettuce in nutrient-film technique hydroponic system (fresh weight of leafy head at harvest); format: in vivo, lettuce (buttercrunch); conditions: treatment day 42, harvest day 58, N=28 (control mean 36.13 g)
Protocol: Lettuce was grown in a nutrient-film technique hydroponic system. The seedlings were grown under LED light film with a 14 hour on time, and a 10 hour off time. The lettuce seeds were purchased from Johnny Selected Seeds. The seed variety was buttercrunch, ID 435 g. The nutrients used were Chem-Gro lettuce formula NPK with micronutrients. Calcium nitrate and magnesium sulfate were also added to the nutrients. The nutrients and the NAC-trisulfide were added to the nutrient bucket, Which was a 4 gallon bucket that recirculated the nutrient solution through the entire NFT system to bathe the roots of the lettuce plants with nutrients and water. An air stone with air pump was used in each nutrient bucket to provide aeration to the nutrient solution. […] The nutrient reservoirs were kept pH balanced and nutrient levels were kept steady. The nutrient loading measured in EC (electrical conductivity) would gradually increase as the water was consumed but would return to normal levels once water was added to return the buckets to the max volume of 4 gallons. The conductivity (EC) and pH were measured every 1 to 2 days. Nutrient was added as EC at 4 gallons would approach a value of 0.5 EC. The starting nutrient loading was 1.7 EC, The pH of the nutrient solution was balanced using phosphoric acid “pH down” solution. The pH of the nutrient solution ranged between 6.4-7.4.
The lettuce seeds were started in a separate flood tray. The seeds were sowed into an inert solid support (Oasis Horticubes) and the support absorbed water and nutrients like a sponge. The seedlings were then grown in the seeding hay for 33 days prior to transplant into the channels. At day 42. N-acteyl cysteine trisulfide (NAC trisulfide) was added to the nutrient of the lettuce plants. […]
The lettuce plants were harvested by cutting at the root boundary and discarding the roots along with the solid support. The leafy head of lettuce was then weighed to quantify the fresh weight of the lettuce reported in the graphs (see FIG. 1).

radish = conditions: cited from earlier work
peas = conditions: cited from earlier work
lettuce plants = conditions: cited from earlier work

Row | Compound | Fresh Weight (g) Mean (Lettuce; group 2, 0.2449 g/4 gal nutrient reservoir) [g] | Fresh Weight (g) Mean (Lettuce; group 3, 0.7475 g/4 gal nutrient reservoir) [g] | Fresh Weight (g) Mean (Lettuce; group 4, 1.6112 g/4 gal nutrient reservoir) [g] | harvest yield of radishes (radish; milligram loadings applied) | growth of plants (radish; radish) | growth of plants (peas) | growth of plants (lettuce plants)
1 | CC(=O)N[C@@H](CSSSC[C@H](NC(C)=O)C(=O)O)C(=O)O [NAC trisulfide, N-acetyl cysteine trisulfide] | 42.50 | 51.44 | 56.07 |  |  |  | 
2 | C1COCCN1.COc1ccc(P(=S)(S)N2CCOCC2)cc1 (stereo not shown) [GYY-4137] |  |  |  | doubled | increased the growth | increased the growth | increased the growth
